Experimental findings from patent US20220401407A1, “REGULATION OF THE SLEEP/WAKE CYCLE USING C[…]” (Demetrix, Inc., priority 2021, published 2022) are described below.

Common to all, as to format: cell-based
Experiment [1] concerns the target dopamine receptor DRD5 (Homo sapiens, UniProt P21918). Put plainly: PathHunter β-Arrestin GPCR agonist assay, DRD5. Details: DRD5 (Agonist) percent activity: concentration or dose not given beside the values. The note with it: for DRD5 (Agonist) percent activity: agonist mode, dopamine as control. From the text:
(§1) To perform the GPCR reactivity assay, a commercial GPCR assay, PathHunter® β-Arrestin from Eurofins DiscoverX Products (Fremont, Calif.), was used. […] At activation of the GPCR receptor and recruitment of β-arrestin, complementation of the peptide fragments occurs and restores β-galactosidase activity. The amount of β-galactosidase activity is then measurable using chemiluminescent reagents.
(§2) A total of four assays were run. Agonist assays were run for each of HCRTR1 and HCRTR2 and antagonist assays were run for HCRTR1 and HCRTR2. In each of the two agonist assays, PathHunter® cell lines were removed from a freezer stock and seeded at a volume of 20 μL into white walled, 384-well microplates and incubated at 37° C. Each cell was incubated with a sample to induce a response and then diluted to generate a 5× sample in assay buffer. 5 μL of the 5× sample was then added to cells and incubated at 37° C. for 90 or 180 minutes. The final assay concentration was 1%. The assay signal was generated through addition of 12.5 μL or 15 μL (50% V/V) of a detection reagent cocktail followed by a one hour incubation time at room temperature. Microplates were read following signal generation with a PerkinElmer Envision™ (PerkinElmer Inc., Waltham, Mass.) for chemiluminescent signal detection. Reactivity was analyzed using the CBIS data analysis suite (ChemInnovation, CA) where RLU refers to the raw measured values. The percent activity was then calculated using the formula: % Activity=100%*(mean RLU of test sample−mean RLU of control)/(mean max control ligand−mean RLU of vehicle control).
Table 2 depicts the results of evaluating the cannabinoid compounds to act as an agonist for the dopamine receptor DRD5. The same experimental procedure as used for HCRTR1 and HCRTR2 agonist testing (Table 1) was followed with the substitution of dopamine as the control for the DRD5 receptor.

In experiment [2] the target is T1, HCRTR1 (Homo sapiens, UniProt O43613).
T1 sequence (O43613 1-425): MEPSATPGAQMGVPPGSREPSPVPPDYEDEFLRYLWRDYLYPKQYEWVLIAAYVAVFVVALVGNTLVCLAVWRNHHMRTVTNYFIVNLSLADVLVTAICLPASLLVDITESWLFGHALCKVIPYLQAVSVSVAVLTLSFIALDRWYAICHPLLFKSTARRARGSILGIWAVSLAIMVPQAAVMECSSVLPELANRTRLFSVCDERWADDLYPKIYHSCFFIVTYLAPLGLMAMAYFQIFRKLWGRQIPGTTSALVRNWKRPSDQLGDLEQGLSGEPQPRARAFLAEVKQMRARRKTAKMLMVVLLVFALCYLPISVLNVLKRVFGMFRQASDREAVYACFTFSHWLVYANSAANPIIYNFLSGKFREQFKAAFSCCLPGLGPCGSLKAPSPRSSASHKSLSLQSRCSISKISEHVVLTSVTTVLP
The experiment is described as follows: PathHunter β-Arrestin GPCR agonist assay, HCRTR1. The arrangement: concentration or dose not given beside the values. The conditions noted are these: agonist mode; Orexin A as control. The method, then:
(§3) To evaluate the role specific cannabinoid compounds may play on the sleep/wake cycle, a GPCR reactivity assay was performed to determine the reactivity of 19 cannabinoid compounds to the orexin receivers HCRTR1 and HCRTR2. The evaluated cannabinoid compounds were: CBN, THCV, CBDVA, CBG, CBL, CBC, CBDV, CBDA, CBD, CBGA, (+)-CBD, CBG-C4, CBD-C1, CBD-C2, CBGV, CBGA-C4, CBGVA, CBCA, and CBLA. Orexin A was used as the control for HCRTR1 and HCRTR2.
as §1, §2
(§4) For agonist activity, the percent activity is depicted while for antagonist activity, the percent inhibition is depicted.

The target of experiment [3] is T1, HCRTR1. Put plainly: PathHunter β-Arrestin GPCR antagonist assay, HCRTR1. The conditions noted are these: for HCRTR1 (Antagonist) percent inhibition: antagonist mode, agonist challenge at EC80. The protocol:
as §3, §1
(§5) In each of the two antagonist assays, PathHunter® cell lines were removed from a freezer stock and seeded at a volume of 20 μL into white walled, 384-well microplates and incubated at 37° C. Each cell was pre-incubated with an antagonist followed by an agonist challenge at the EC80 concentration. Cells were then diluted to generate a 5× sample in assay buffer. 5 μL of the 5× sample was then added to cells and incubated at 37° C. for 30 minutes. Finally, 5 μL of 6×EC80 agonist in assay buffer were added to the cells and incubated at 37° C. for 90 minutes or 180 minutes. The assay signal was generated through addition of 12.5 μL or 15 μL (50% V/V) of a detection reagent cocktail followed by a one hour incubation time at room temperature. Microplates were read following signal generation with a PerkinElmer Envision™ (PerkinElmer Inc., Waltham, Mass.) for chemiluminescent signal detection. Reactivity was analyzed using the CBIS data analysis suite (ChemInnovation, CA) where RLU refers to the raw measured values. The percent inhibition was calculated using the formula: % Inhibition=100%*(1−mean RLU of test sample−mean RLU of control)/(mean RLU of EC80 control−mean RLU of vehicle control).
as §4

For experiment [4], the target named is T2, HCRTR2 (Homo sapiens, UniProt O43614).
T2 sequence (O43614 1-444): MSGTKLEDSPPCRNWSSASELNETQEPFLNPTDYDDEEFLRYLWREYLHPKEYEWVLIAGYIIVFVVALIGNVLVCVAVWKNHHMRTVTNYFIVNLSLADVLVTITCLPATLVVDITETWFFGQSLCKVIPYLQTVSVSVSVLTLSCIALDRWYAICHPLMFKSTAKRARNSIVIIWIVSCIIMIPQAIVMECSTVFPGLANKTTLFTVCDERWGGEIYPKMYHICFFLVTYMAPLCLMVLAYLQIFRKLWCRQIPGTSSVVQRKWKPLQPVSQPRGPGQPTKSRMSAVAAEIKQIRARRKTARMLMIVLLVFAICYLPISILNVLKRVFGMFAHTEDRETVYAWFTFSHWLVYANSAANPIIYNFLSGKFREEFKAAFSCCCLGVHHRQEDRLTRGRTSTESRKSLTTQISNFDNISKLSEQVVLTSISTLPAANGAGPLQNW
Put plainly: PathHunter β-Arrestin GPCR antagonist assay, HCRTR2. The note with it: for HCRTR2 (Antagonist) percent inhibition: antagonist mode, agonist challenge at EC80. The protocol: as §3, §1, §5, §4

Experiment [5] concerns the target T2, HCRTR2. Put plainly: PathHunter β-Arrestin GPCR agonist assay, HCRTR2. The arrangement: concentration or dose not given beside the values. The note with it: agonist mode; Orexin A as control. The protocol: as §3, §1, §2, §4

“Also recorded” adds a separate entry of the source.

Sequence of dopamine receptor DRD5 (P21918 whole entry, the tested form may be a part): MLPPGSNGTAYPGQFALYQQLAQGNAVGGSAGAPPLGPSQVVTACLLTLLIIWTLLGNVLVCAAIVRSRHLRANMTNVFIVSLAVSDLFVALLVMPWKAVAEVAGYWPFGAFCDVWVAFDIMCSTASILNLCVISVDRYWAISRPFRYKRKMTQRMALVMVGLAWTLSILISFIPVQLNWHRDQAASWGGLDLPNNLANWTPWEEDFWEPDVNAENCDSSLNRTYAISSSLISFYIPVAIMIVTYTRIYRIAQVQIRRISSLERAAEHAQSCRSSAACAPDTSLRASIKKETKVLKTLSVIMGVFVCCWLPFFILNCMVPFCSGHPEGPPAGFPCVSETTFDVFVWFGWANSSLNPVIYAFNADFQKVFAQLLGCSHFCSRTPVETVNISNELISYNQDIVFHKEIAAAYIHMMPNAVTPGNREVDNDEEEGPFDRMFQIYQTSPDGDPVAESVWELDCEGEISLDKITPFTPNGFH

As for `CCCCCc1cc(O)c(C/C=C(\C)CCC=C(C)C)c(O)c1C(=O)O` [CBGA, cannabigerolic acid], in experiment [1], the “DRD5 (Agonist) percent activity” value amounted to 0%. The “HCRTR1 (Agonist) percent activity” value in experiment [2] is 1%. In experiment [3], the “antagonist effect on HCRTR1 (in words)” value is given as “do not demonstrate meaningful activity” and the “HCRTR1 (Antagonist) percent inhibition” value came out at 8%. Moreover, in experiment [4], the “antagonist effect on HCRTR2 (in words)” value is on record as “do not demonstrate meaningful activity” and the “HCRTR2 (Antagonist) percent inhibition” value was 14%. For the same compound, the “HCRTR2 (Agonist) percent activity” value in experiment [5] came to 1%.
With `CCCCCc1cc(O)c2c(c1)OC1(C)CCC3C1C2C3(C)C` (stereo not shown) [CBL, cannabicyclol], in experiment [1], the “DRD5 agonist effect (in words)” value is “DRD5 agonists; also recorded: stronger agonist effects” and the “DRD5 (Agonist) percent activity” value amounted to 37%. The “HCRTR1 (Agonist) percent activity” value in experiment [2] stood at 2%. Further, in experiment [3], the “antagonist effect on HCRTR1 (in words)” value is listed as “antagonist effect; also recorded: acted as an antagonist” and the “HCRTR1 (Antagonist) percent inhibition” value came out at 96%. For the same compound, in experiment [4], the “antagonist effect on HCRTR2 (in words)” value is “antagonist effect; also recorded: acted as an antagonist” and the “HCRTR2 (Antagonist) percent inhibition” value came to 93%. Besides, the “HCRTR2 (Agonist) percent activity” value in experiment [5] is 5%.
Regarding `CCCc1cc(O)c(C/C=C(\C)CCC=C(C)C)c(O)c1` [CBGV, cannabigerivarin], the “DRD5 (Agonist) percent activity” value in experiment [1] worked out at 6%. The “HCRTR1 (Agonist) percent activity” value in experiment [2] stood at 4%. Further, in experiment [3], the “antagonist effect on HCRTR1 (in words)” value is given as “demonstrate activity against only HCRTR1; also recorded: acted as antagonists” and the “HCRTR1 (Antagonist) percent inhibition” value was 44%. Besides, in experiment [4], the “antagonist effect on HCRTR2 (in words)” value was “demonstrate activity against only HCRTR1; also recorded: did not act as antagonists” and the “HCRTR2 (Antagonist) percent inhibition” value was 12%. Further, the “HCRTR2 (Agonist) percent activity” value in experiment [5] stood at 2%.
For the compound `CCCc1cc(O)c(C/C=C(\C)CCC=C(C)C)c(O)c1C(=O)O` [CBGVA, cannabigerovarinic acid], the “DRD5 (Agonist) percent activity” value in experiment [1] is recorded as 0%. Moreover, the “HCRTR1 (Agonist) percent activity” value in experiment [2] was determined as 0%. In experiment [3], the “antagonist effect on HCRTR1 (in words)” value is “do not demonstrate meaningful activity” and the “HCRTR1 (Antagonist) percent inhibition” value is on record as 3%. For the same compound, in experiment [4], the “antagonist effect on HCRTR2 (in words)” value was “do not demonstrate meaningful activity” and the “HCRTR2 (Antagonist) percent inhibition” value was 12%. The “HCRTR2 (Agonist) percent activity” value in experiment [5] amounted to 1%.
As for `CCCCCc1cc(O)c(C/C=C(\C)CCC=C(C)C)c(O)c1` [CBG, cannabigerol], the “DRD5 (Agonist) percent activity” value in experiment [1] came to 9%. The “HCRTR1 (Agonist) percent activity” value in experiment [2] stood at 3%. Also, in experiment [3], the “antagonist effect on HCRTR1 (in words)” value is recorded as “antagonist effect; also recorded: acted as an antagonist” and the “HCRTR1 (Antagonist) percent inhibition” value is 98%. In addition, in experiment [4], the “antagonist effect on HCRTR2 (in words)” value is listed as “antagonist effect; also recorded: acted as an antagonist” and the “HCRTR2 (Antagonist) percent inhibition” value is on record as 68%. In experiment [5], the “HCRTR2 (Agonist) percent activity” value amounted to 4%.
On to `CCCc1cc(O)c2c(c1)OC(C)(C)[C@@H]1CCC(C)=C[C@@H]21` [THCV, tetrahydrocannabivarin], for which, in experiment [1], the “DRD5 agonist effect (in words)” value is listed as “DRD5 agonists; also recorded: stronger agonist effects” and the “DRD5 (Agonist) percent activity” value was found to be 52%. Moreover, the “HCRTR1 (Agonist) percent activity” value in experiment [2] was found to be 2%. In experiment [3], the “antagonist effect on HCRTR1 (in words)” value is reported as “antagonist effect; also recorded: acted as an antagonist” and the “HCRTR1 (Antagonist) percent inhibition” value was found to be 89%. In experiment [4], the “antagonist effect on HCRTR2 (in words)” value is on record as “antagonist effect; also recorded: acted as an antagonist” and the “HCRTR2 (Antagonist) percent inhibition” value was 89%. In addition, in experiment [5], the “HCRTR2 (Agonist) percent activity” value is given as 6%.
For (+)-cannabidiol [(+)-CBD], in experiment [1], the “DRD5 (Agonist) percent activity” value stood at 9%. The “HCRTR1 (Agonist) percent activity” value in experiment [2] stood at 3%. In experiment [3], the “antagonist effect on HCRTR1 (in words)” value is given as “antagonist effect; also recorded: acted as an antagonist” and the “HCRTR1 (Antagonist) percent inhibition” value is recorded as 97%. Also, in experiment [4], the “antagonist effect on HCRTR2 (in words)” value was “antagonist effect; also recorded: acted as an antagonist” and the “HCRTR2 (Antagonist) percent inhibition” value is 80%. Moreover, the “HCRTR2 (Agonist) percent activity” value in experiment [5] came to 8%.
With `C=C(C)[C@@H]1CCC(C)=C[C@H]1c1c(O)cc(CCC)cc1O` [CBDV, cannabidivarin], the “DRD5 (Agonist) percent activity” value in experiment [1] amounted to 7%. The “HCRTR1 (Agonist) percent activity” value in experiment [2] was determined as 0%. Further, in experiment [3], the “antagonist effect on HCRTR1 (in words)” value is “demonstrate activity against only HCRTR1; also recorded: acted as antagonists” and the “HCRTR1 (Antagonist) percent inhibition” value is reported as 61%. Besides, in experiment [4], the “antagonist effect on HCRTR2 (in words)” value was “demonstrate activity against only HCRTR1; also recorded: did not act as antagonists” and the “HCRTR2 (Antagonist) percent inhibition” value was 18%. Moreover, the “HCRTR2 (Agonist) percent activity” value in experiment [5] is 0%.
